Data published in PubChem BioAssay AID330 (DTP/NCI, 2004).
Several values for one entry are separate records, joined by “and”; a condition that tells them apart may be missing. Identical values can stand only once. Toxic doses and inconclusive results are not listed. Peptide text beside a SMILES is read from it.

Tested on: P388 leukemia ip, CD2F1 mice, survival T/C
Assay: NCI In Vivo Anticancer Drug Screen. Data for tumor model P388 Leukemia (intraperitoneal) in CD2F1 (CDF1) mice
Conditions: endpoint: median survival time, higher = longer survival
Procedure, shortened: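 Mice carrying the transplanted tumor received test compound or vehicle. Survival was recorded in each group, and the value is the treated-group measurement divided by that of the vehicle-treated control group.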

[1] = dose: 50.0 mg/kg/injection, schedule: Q01DX005 (ip), vehicle: saline with Tween-80
[2] = dose: 100.0 mg/kg/injection, schedule: Q01DX005 (ip), vehicle: saline with Tween-80

COC(CC(C)(O)C(F)(F)F)OC (configuration not stated)
T/C (dose: 60.0 mg/kg/injection, schedule: Q01DX005 (ip), vehicle: saline): 103 % of control | T/C (dose: 120.0 mg/kg/injection, schedule: Q01DX005 (ip), vehicle: saline): 112 % of control | T/C (dose: 240.0 mg/kg/injection, schedule: Q01DX005 (ip), vehicle: saline): 110 % of control

Nc1cc(=O)[nH]c(O)c1C(=O)O
T/C (dose: 25.0 mg/kg/injection, schedule: Q01DX009 (ip), vehicle: saline with Tween-80): 95 % of control

O=[N+]([O-])c1cccc2c1nnn2OC1CCCC1
T/C (dose: 100.0 mg/kg/injection, schedule: Q01DX001 (ip), vehicle: saline with Tween-80): 102 % of control | T/C (dose: 200.0 mg/kg/injection, schedule: Q01DX001 (ip), vehicle: saline with Tween-80): 98 % of control

O=[N+]([O-])c1ccc(N/N=C(\CI)c2ccccc2)c([N+](=O)[O-])c1
T/C (dose: 75.0 mg/kg/injection, schedule: Q01DX001 (ip), vehicle: saline with Tween-80): 105 % of control | T/C (dose: 150.0 mg/kg/injection, schedule: Q01DX001 (ip), vehicle: saline with Tween-80): 105 % of control | T/C (dose: 300.0 mg/kg/injection, schedule: Q01DX001 (ip), vehicle: saline with Tween-80): 120 % of control

CN1C(c2ccccc2)C2CCCC(C2O)C1c1ccccc1 (configuration not stated)
T/C (dose: 100.0 mg/kg/injection, schedule: Q04DX003 (ip), vehicle: saline): 97 % of control | T/C (dose: 200.0 mg/kg/injection, schedule: Q04DX003 (ip), vehicle: saline): 100 % of control | T/C (dose: 400.0 mg/kg/injection, schedule: Q04DX003 (ip), vehicle: saline): 98 % of control

Oc1ccc(Cl)cc1C1c2ccccc2Oc2ccccc21
T/C (dose: 50.0 mg/kg/injection, schedule: Q01DX009 (ip), vehicle: Klucel (hydroxypropylcellulose) (HPC)): 115 % of control | T/C (dose: 100.0 mg/kg/injection, schedule: Q01DX009 (ip), vehicle: Klucel (hydroxypropylcellulose) (HPC)): 108 % of control

COC(=O)c1nc2[nH]n(-c3ccccc3)c(=O)c2c(C(=O)OC)c1C(C)C(=O)c1ccccc1 (configuration not stated)
T/C (dose: 60.0 mg/kg/injection, schedule: Q01DX005 (ip), vehicle: saline with Tween-80): 100 % of control | T/C (dose: 120.0 mg/kg/injection, schedule: Q01DX005 (ip), vehicle: saline with Tween-80): 109 % of control | T/C (dose: 240.0 mg/kg/injection, schedule: Q01DX005 (ip), vehicle: saline with Tween-80): 94 % of control

COC(=O)c1ccc(SCC(=O)c2ccc([N+](=O)[O-])o2)cc1
T/C (dose: 50.0 mg/kg/injection, schedule: Q01DX009 (ip), vehicle: suspension in saline): 88 % of control | T/C (dose: 100.0 mg/kg/injection, schedule: Q01DX009 (ip), vehicle: suspension in saline): 97 % of control

CN(C)CCNc1ccc(CO)c2sc3ccc(O)cc3c(=O)c12
T/C (dose: 25.0 mg/kg/injection, schedule: Q01DX005 (ip), vehicle: saline with Tween-80): 160 % of control and 162 % of control | T/C [1]: 173 % of control and 175 % of control | T/C [2]: 190 % of control and 194 % of control | T/C (dose: 200.0 mg/kg/injection, schedule: Q01DX005 (ip), vehicle: saline with Tween-80): 222 % of control

CCCCOc1cccc2c1C(=O)c1c(O)c3c(c(O)c1C2=O)C[C@@](O)(C(C)=O)C[C@@H]3OC1CC(N)C(O)C(C)O1 (some centres not stated)
T/C (dose: 3.13 mg/kg/injection, schedule: Q04DX003 (ip), vehicle: water): 117 % of control and 120 % of control | T/C (dose: 6.25 mg/kg/injection, schedule: Q04DX003 (ip), vehicle: water): 113 % of control and 117 % of control | T/C (dose: 12.5 mg/kg/injection, schedule: Q04DX003 (ip), vehicle: water): 115 % of control | T/C (dose: 50.0 mg/kg/injection, schedule: Q04DX003 (ip), vehicle: water): 89 % of control and 90 % of control

COC1C(/C=[N+](\C)[O-])OC2OC(C)(C)OC21 (configuration not stated)
T/C (dose: 50.0 mg/kg/injection, schedule: Q01DX005 (ip), vehicle: saline): 102 % of control | T/C (dose: 100.0 mg/kg/injection, schedule: Q01DX005 (ip), vehicle: saline): 100 % of control | T/C (dose: 200.0 mg/kg/injection, schedule: Q01DX005 (ip), vehicle: saline): 93 % of control

O=C1NC(=O)C2CC3C(CC12)C1C(=O)NC(=O)C31 (configuration not stated)
T/C [1]: 104 % of control | T/C [2]: 101 % of control

NC(Cc1ccccc1)C(=O)NCC(=O)NC(Cc1ccccc1)C(=O)NCC(=O)O (configuration not stated) (H-FGFG-OH; configuration not given here)
T/C (dose: 50.0 mg/kg/injection, schedule: Q01DX005 (ip), vehicle: Klucel (hydroxypropylcellulose) (HPC)): 96 % of control | T/C (dose: 100.0 mg/kg/injection, schedule: Q01DX005 (ip), vehicle: Klucel (hydroxypropylcellulose) (HPC)): 98 % of control | T/C (dose: 200.0 mg/kg/injection, schedule: Q01DX005 (ip), vehicle: Klucel (hydroxypropylcellulose) (HPC)): 102 % of control

Cc1cn(C2CC3[O][Sn]([c]4ccccc4)([c]4ccccc4)[O]CC3O2)c(=O)[nH]c1=O (configuration not stated)
T/C (dose: 12.5 mg/kg/injection, schedule: Q01DX009 (ip), vehicle: saline): 124 % of control | T/C (dose: 25.0 mg/kg/injection, schedule: Q01DX009 (ip), vehicle: saline): 100 % of control
